Assay results as given in publication PMC4032265 (PLoS ONE, 2014).
Where two headings read alike, the source gives them in different places.

Columns and labels:
[1] = target: H2 histaminergic receptor (Homo sapiens, UniProt P25021); assay: PDSP radioligand binding, H2; conditions: read-out: % inhibition at 10 µM
hA2AAR [2] = target: T1, hA2AAR (Homo sapiens, UniProt P29274); parameters: method as in earlier work; conditions: ref 1-4 of Table S1 (Tosh et al. 2009, 2012); cited from earlier work
hA1AR [3] = target: T2, hA1AR (Homo sapiens, UniProt P30542); conditions: ref 1-4 of Table S1 (Tosh et al. 2009, 2012); cited from earlier work
T2 sequence (P30542 1-326): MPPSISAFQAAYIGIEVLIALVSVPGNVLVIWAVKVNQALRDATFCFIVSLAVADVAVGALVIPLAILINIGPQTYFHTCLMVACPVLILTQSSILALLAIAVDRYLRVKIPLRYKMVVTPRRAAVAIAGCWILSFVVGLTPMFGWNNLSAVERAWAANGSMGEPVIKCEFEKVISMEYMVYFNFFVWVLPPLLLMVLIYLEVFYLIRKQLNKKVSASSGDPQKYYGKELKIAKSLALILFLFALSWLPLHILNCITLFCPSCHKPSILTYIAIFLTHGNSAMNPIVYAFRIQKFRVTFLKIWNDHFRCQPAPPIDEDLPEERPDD

[4] = target: peripheral benzodiazepine receptor (PBR) (Rattus norvegicus, UniProt P16257); assay: PDSP radioligand binding, PBR; conditions: for inhibition at 10 µM: read-out: % inhibition at 10 µM; for Ki: full curves, n = 2
β1 adrenergic receptor = β1 adrenergic receptor (Homo sapiens, UniProt P08588); assay: PDSP radioligand binding, β1; conditions: read-out: % inhibition at 10 µM
5HT2B receptor = 5HT2B receptor (Homo sapiens, UniProt P41595); assay: 5HT2B functional assay, antagonist mode (inhibition of agonist activity); type: cell-based; conditions: for % inhibition as antagonist at 5HT2B: 10 µM; for IC50: antagonist mode
5HT2C receptor = 5HT2C receptor (Homo sapiens, UniProt P28335); assay: 5HT2C functional assay, antagonist mode (inhibition of agonist activity); type: cell-based; conditions: 10 µM
hA3AR = hA3AR (Homo sapiens, UniProt P0DMS8); assay: Radioligand binding at hA3AR
hA1AR [5] = target: T2, hA1AR; assay: Radioligand binding at hA1AR; conditions: compounds 8 and 9, measured for this study
hA2AAR [6] = target: T1, hA2AAR; assay: Radioligand binding at hA2AAR; conditions: compounds 8 and 9, measured for this study
α2C adrenergic receptor = target: T3, α2C adrenergic receptor (Homo sapiens, UniProt P18825); assay: α2C adrenergic receptor functional assay (antagonist); type: cell-based
T3 sequence (P18825 1-462): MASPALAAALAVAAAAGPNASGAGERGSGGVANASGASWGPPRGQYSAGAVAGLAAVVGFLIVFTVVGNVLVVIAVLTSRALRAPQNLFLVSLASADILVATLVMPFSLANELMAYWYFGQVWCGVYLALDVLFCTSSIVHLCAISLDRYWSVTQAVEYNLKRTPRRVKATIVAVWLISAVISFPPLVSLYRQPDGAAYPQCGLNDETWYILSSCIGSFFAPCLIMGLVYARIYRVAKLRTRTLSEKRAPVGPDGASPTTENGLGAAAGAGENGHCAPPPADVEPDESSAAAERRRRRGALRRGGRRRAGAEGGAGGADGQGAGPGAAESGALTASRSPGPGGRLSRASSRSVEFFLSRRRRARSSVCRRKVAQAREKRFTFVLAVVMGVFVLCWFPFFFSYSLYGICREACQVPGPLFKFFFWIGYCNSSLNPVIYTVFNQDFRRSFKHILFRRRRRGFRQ

KXα4β2 receptor 2 = target: T4, KXα4β2 receptor 2 (Rattus norvegicus, UniProt P09483+P12390); assay: [3H]epibatidine binding in cells expressing KXα4β2 receptor 2
T4 construct: expressed in transfected cells

KXα3β4 receptor 2 = target: T5, KXα3β4 receptor 2 (Rattus norvegicus, UniProt P04757+P12392); assay: 86Rb+ efflux, nicotinic acetylcholine receptor antagonist activity, KXα3β4 receptor 2 cells; type: cell-based; conditions: cells expressing KXα3β4 receptor 2
T5 construct: expressed in transfected cells; host or cells: KXα3β4 receptor 2 (KXα3β4R2) cells

YXα3β4H1 receptor = target: T6, YXα3β4H1 receptor (Homo sapiens, UniProt P30926+P32297); assay: 86Rb+ efflux, nicotinic acetylcholine receptor antagonist activity, YXα3β4H1 cells; type: cell-based; conditions: cells expressing YXα3β4H1 receptor
T6 construct: expressed in transfected cells

[7] = read-out: IC50 at 5HT2B receptors (Figure S2)

SMILES	hA2AAR % inhibition (hA2AAR [2])	hA1AR % inhibition (hA1AR [3])	Ki [4] [µM]	inhibition at 10 µM ([4]; single concentration 10 µM) [%]	inhibition at 10 µM (β1 adrenergic receptor; single concentration 10 µM) [%]	further results
CNC(=O)[C@@]12C[C@@H]1[C@@H](n1cnc3c(NCc4cccc(Cl)c4)nc(C#Cc4ccc(F)c(F)c4)nc31)[C@H](O)[C@@H]2O [Compound 1]	41%±10%	< 10%	–	–	–	inhibition at 10 µM [1]: 34%; inhibition at 10 µM [4]: 71%; inhibition at 10 µM (β1 adrenergic receptor): 0%
CNC(=O)[C@@]12C[C@@H]1[C@@H](n1cnc3c(NCc4cccc(Cl)c4)nc(C#Cc4ccc(F)cc4)nc31)[C@H](O)[C@@H]2O [Compound 2]	42%±2%	20%±6%	0.253 ± 0.057	92	0	–
CNC(=O)[C@@]12C[C@@H]1[C@@H](n1cnc3c(NCc4cccc(Cl)c4)nc(C#Cc4ccccc4Cl)nc31)[C@H](O)[C@@H]2O [Compound 3]	52%±12%	19%±2%	0.344 ± 0.149	87	2	–
CNC(=O)[C@@]12C[C@@H]1[C@@H](n1cnc3c(NCc4cccc(Cl)c4)nc(Cl)nc31)[C@H](O)[C@@H]2O [Compound 4]	–	–	–	32	0	% inhibition as antagonist at 5HT2B (5HT2B receptor): 60%; IC50 (5HT2B receptor; read-out: IC50, inhibition of agonist activity at 5HT2B): 0.887 µM; IC50 (5HT2B receptor; [7]): 3.26 µM; % inhibition as antagonist at 5HT2C (5HT2C receptor): 94%
CNC(=O)[C@@]12C[C@@H]1[C@@H](n1cnc3c(NC)nc(C#Cc4ccc(F)c(F)c4)nc31)[C@H](O)[C@@H]2O [Compound 5]	< 10%	< 10%	–	25	9	–
O[C@@H]1[C@H](O)[C@@H]2C[C@@H]2[C@H]1n1cnc2c(NCc3cccc(Cl)c3)nc(C#Cc3ccc(F)c(F)c3)nc21 [Compound 6]	–	29%±1%	1.7	63	6	inhibition at 10 µM ([1]; single concentration 10 µM): 0%
O[C@@H]1[C@H](O)[C@@H]2C[C@@H]2[C@H]1n1cnc2c(NCc3cccc(Cl)c3)ncnc21 [Compound 7]	–	–	–	13	0	–
Fc1ccc(C#Cc2nc(NCc3cccc(Cl)c3)c3nc[nH]c3n2)cc1F [Compound 8]	–	–	–	13	0	Ki (hA3AR): 0.12 µM; hA1AR % inhibition (hA1AR [5]): < 10%; hA2AAR % inhibition (hA2AAR [6]): < 10%
Clc1cccc(CNc2nc(Cl)nc3[nH]cnc23)c1 [Compound 9]	–	–	–	8	37	Ki (hA3AR): 0.165 µM; % inhibition as antagonist at 5HT2B (5HT2B receptor): 26%; IC50 (5HT2B receptor; [7]): 0.89 µM; hA1AR % inhibition (hA1AR [5]): 45%±3%; IC50 (α2C adrenergic receptor): 2.9 µM; % inhibition as antagonist at 5HT2C (5HT2C receptor): 65%; hA2AAR % inhibition (hA2AAR [6]): 37%±1%
O[C@@H]1[C@H](O)[C@@H]2C[C@@H]2[C@H]1n1cnc2c(NC(C3CC3)C3CC3)nc(Cl)nc21 [Compound 10]	–	–	–	0	4	inhibition of [3H]epibatidine binding (KXα4β2 receptor 2): no inhibition; inhibition at 10 µM ([1]; single concentration 10 µM): 13%; IC50 (KXα3β4 receptor 2): 21.2 µM; IC50 (YXα3β4H1 receptor): 30.3 µM
